Test results: BigSolDB 2.1

Clc1ccc(COC(Cn2ccnc2)c2ccc(Cl)cc2Cl)cc1.O=[N+]([O-])O (centres undefined)
solubility (mole fraction)
Conditions	278.15 K	283.15 K	288.15 K	293.15 K	298.15 K	303.15 K	308.15 K	313.15 K	318.15 K
in 1,4-dioxane	–	–	0.000262	0.000317	0.000393	0.000482	0.000596	0.000729	0.000897
in ethanol	0.000526	0.000656	0.000832	0.00102	0.00125	0.00153	0.00189	0.00228	0.00275
in methanol	0.0015	0.00181	0.00221	0.00266	0.00328	0.00397	0.00479	0.00577	0.00687
in water	1.67e-05	2.05e-05	2.47e-05	2.93e-05	3.44e-05	3.98e-05	4.56e-05	5.16e-05	5.78e-05
